According to PMC12881681 (Molecular Pharmacology, 2025):
Where two headings read alike, the source gives them in different places.

Experiments:
[1] = Pharmacokinetics study in mice: erlotinib pretreatment, carbazeran and 4-oxo-carbazeran; type: in vivo, BALB/c mice; settings: for AUC0-∞ / Cmax / Tmax / AUC(0-inf): blood; for AUC0-∞ / Cmax / Tmax / MRT0-∞ / AUC(0-inf) / CL/F / MRT inf: carbazeran 10 mg/kg p.o.; for CL/F: read-out: Apparent oral clearance (CL/F) (converted); for MRT inf: read-out: MRT0-∞
Experimental: BALB/c mice (male, ∼8 weeks old) were purchased and housed at the Biological Resource Centre, Agency for Science, Technology and Research (A∗STAR). The experimental protocol was approved by the A∗STAR Institutional Review Board. […] Blood (12.5 μL) was drawn from the tail vein (with a needle prick) at various times (0.25, 0.5, 0.75, 1, 2, 3, 4, 6, and 8 hours) after carbazeran dosing. The blood samples were diluted 2 times with 12.5 μL of water. Acetonitrile containing the internal standard (carbazeran-d4, 4 nM in 75 μL acetonitrile and 3 nM in final sample volume of 100 μL) was added to the blood samples to precipitate proteins. […] Blank and standard calibration samples were prepared from control mice that were not treated with any chemicals. Pharmacokinetic data were analyzed by noncompartmental analysis using Phoenix WinNonlin 6.3 (Certara).
At the end of the last blood collection (8 hour post-carbazeran dosing), the mice were sacrificed. […] The tissue samples were homogenized, and a 12.5 μL aliquot of the homogenate was diluted with an equal volume of water. Acetonitrile containing the internal standard (carbazeran-d4, 4 nM in 75 μL acetonitrile and 3 nM in final sample volume of 100 μL) was added to the diluted tissue samples (25 μL) to precipitate the proteins.

human recombinant AOX1 = molecular target: T1, human recombinant AOX1 (Homo sapiens, UniProt Q06278); assay: Time-dependent inactivation of carbazeran 4-oxidation by human recombinant AOX1; type: biochemical; settings: each 10 μM (raloxifene 0.02 μM), 30-minute preincubation, vs vehicle control without preincubation
T1 construct: purchased Cypex Ltd CYP150
T1 sequence (Q06278 1-1338): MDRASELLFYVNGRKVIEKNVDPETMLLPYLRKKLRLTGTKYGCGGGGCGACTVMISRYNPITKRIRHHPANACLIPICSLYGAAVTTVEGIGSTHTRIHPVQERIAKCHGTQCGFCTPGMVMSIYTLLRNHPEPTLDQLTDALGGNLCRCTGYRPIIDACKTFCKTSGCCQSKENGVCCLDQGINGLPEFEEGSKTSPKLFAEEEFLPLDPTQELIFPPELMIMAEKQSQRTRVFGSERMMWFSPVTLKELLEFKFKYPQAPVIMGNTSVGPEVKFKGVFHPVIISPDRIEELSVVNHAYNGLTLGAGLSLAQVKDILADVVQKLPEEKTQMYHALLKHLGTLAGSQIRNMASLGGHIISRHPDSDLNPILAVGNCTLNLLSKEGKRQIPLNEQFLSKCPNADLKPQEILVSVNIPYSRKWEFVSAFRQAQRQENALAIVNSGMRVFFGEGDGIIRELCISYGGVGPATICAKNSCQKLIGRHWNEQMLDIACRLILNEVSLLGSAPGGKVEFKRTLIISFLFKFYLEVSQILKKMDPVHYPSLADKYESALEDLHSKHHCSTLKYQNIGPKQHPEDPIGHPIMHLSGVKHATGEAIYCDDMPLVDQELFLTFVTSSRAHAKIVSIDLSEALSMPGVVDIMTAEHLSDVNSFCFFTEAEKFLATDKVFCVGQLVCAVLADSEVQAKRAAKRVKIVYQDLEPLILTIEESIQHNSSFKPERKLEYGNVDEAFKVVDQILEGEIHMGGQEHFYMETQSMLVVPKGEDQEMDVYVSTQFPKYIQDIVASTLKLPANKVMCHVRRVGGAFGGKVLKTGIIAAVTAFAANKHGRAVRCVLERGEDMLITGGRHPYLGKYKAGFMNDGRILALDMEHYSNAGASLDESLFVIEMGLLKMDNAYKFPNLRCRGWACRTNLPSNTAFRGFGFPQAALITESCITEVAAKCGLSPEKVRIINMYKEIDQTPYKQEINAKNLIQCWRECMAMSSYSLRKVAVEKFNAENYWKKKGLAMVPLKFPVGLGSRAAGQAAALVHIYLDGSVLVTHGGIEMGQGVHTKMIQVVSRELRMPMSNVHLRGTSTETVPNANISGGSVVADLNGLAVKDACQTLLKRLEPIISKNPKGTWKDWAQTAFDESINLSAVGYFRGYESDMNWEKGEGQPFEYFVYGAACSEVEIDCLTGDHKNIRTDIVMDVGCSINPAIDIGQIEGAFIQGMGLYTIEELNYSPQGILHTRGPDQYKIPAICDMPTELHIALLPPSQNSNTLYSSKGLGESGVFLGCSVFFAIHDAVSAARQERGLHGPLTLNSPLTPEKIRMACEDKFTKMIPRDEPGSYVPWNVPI
Experimental: (§1) Carbazeran 4-oxidation and O^6-benzylguanine 8-oxidation were deployed as AOX1-selective catalytic markers.[27] The assay conditions (amount of cytosolic protein, incubation time, and substrate concentration) for carbazeran 4-oxidation catalyzed by human recombinant AOX1 and human/rat/mouse liver cytosols were optimized previously.[7]^,[25]
(§2) Enzymatic reaction was initiated by adding human liver cytosol (100 μg). After the specified preincubation duration, an aliquot (10 μL) of the preincubation mixture was transferred to 190 μL of a prewarmed (for 3 minutes at 37 °C) secondary incubation mixture (total volume of 200 μL) containing potassium phosphate buffer and carbazeran (15 μM) or O^6-benzylguanine (150 μM), which yielded a 20-fold dilution of the primary incubation mixture. The secondary incubation mixture was incubated for 5 minutes at 37 °C before the enzymatic reaction was terminated with 200 μL of ice-cold acetonitrile containing carbazeran-d4 (2.5 nM final concentration; internal standard for 4-oxo-carbazeran) or tolbutamide (25 nM final concentration; internal standard for 8-oxo-O^6-benzylguanine). Each sample was immediately mixed by vortex, placed on ice, centrifuged at 16,000g for 15 minutes at 4 °C and stored at –30 °C until ultra-high performance liquid chromatography–tandem mass spectrometry (UPLC-MS/MS) analysis. For enzyme inactivation assays involving rat and mouse liver cytosol and recombinant AOX1 assays, the experimental conditions were similar to those of human liver cytosol, except that the amount of cytosolic protein was 200 μg (rat) and 150 μg (mouse), respectively, and the incubation time of the secondary incubation mixture was 60 minutes. For the recombinant AOX1 enzyme assay, the amount of enzyme was 100 μg, the incubation time of the secondary incubation mixture was 15 minutes, and the total volume of the primary and secondary incubation mixtures was reduced to 100 μL.
An aliquot (10 μL) of the primary incubation mixture was transferred to a secondary incubation mixture containing carbazeran (15 μM) and incubated for (A) 180, (B) 5, or (C, D) 120 minutes.

[2] = molecular target: T2, human liver cytosolic AOX1 (Homo sapiens, UniProt Q06278); assay: Effects of a competing AOX1 substrate and a competitive AOX1 inhibitor on AOX1 inactivation; type: biochemical; parameters: Enzymatic reaction was initiated by adding human liver cytosol (100 μg); tissue Corning, Inc. (Gentest brand) 452115; host or cells: human liver cytosol, pool of 150 donors; settings: 120 and 240 μM, human liver cytosol (data not shown)
T2 sequence (Q06278 1-1338): T1 sequence (Q06278 1-1338)
Experimental: The molar ratio of O^6-benzylguanine (120, 240, and 480 μM) to 3-vinylerlotinib (10 μM) was 12, 24, and 48, O^6-benzylguanine to 4′-methylerlotinib (3 μM) was 40, 80, and 160, and O^6-benzylguanine to 2-methylerlotinib (1 μM) was 120, 240, and 480, respectively. […] Each standard incubation mixture was subjected to the same procedures as described in Enzyme Inactivation Experiments. The residual AOX1 enzyme activity was determined by the carbazeran 4-oxidation or O^6-benzylguanine 8-oxidation assay.

[3] = molecular target: T2, human liver cytosolic AOX1; assay: Partition ratio determination (titration, human liver cytosol); type: biochemical; parameters: Enzymatic reaction was initiated by adding human liver cytosol (100 μg); tissue Corning, Inc. (Gentest brand) 452115; host or cells: human liver cytosol, pool of 150 donors
Experimental: The enzyme kinetic experiments were conducted as described above. The incubation was allowed to proceed until saturation of enzyme has been reached (6 or 18 minutes, as specified in each figure legend). Carbazeran 4-oxidation was plotted against the ratio of inactivator concentration to AOX1 protein concentration in the incubation mixture of 200 μL. The specific lot of human liver cytosol (#38292) used in this study contained 1.05 ± 0.01 pmol/μL (mean ± SD) of AOX1 protein, as assessed by capillary nanoproteomic immunoassay.[27] The turnover number was the extrapolation of the intercept of the 2 linear regression lines to the x-axis, which was determined by solving the 2 linear regression equations. The partition ratio was calculated by subtracting the turnover number by 1, assuming 1:1 stoichiometry between the inactivator and the enzyme.[29]

[4] = molecular target: T2, human liver cytosolic AOX1; type: biochemical; parameters: Enzymatic reaction was initiated by adding human liver cytosol (100 μg); tissue Corning, Inc. (Gentest brand) 452115; host or cells: human liver cytosol, pool of 150 donors; settings: potassium ferricyanide 2 mM, 0 or 6 min preincubation
Experimental: The residual AOX1 enzyme activity was determined by the carbazeran 4-oxidation assay.
A test chemical at a concentration described above was incubated with human liver cytosol (100 μg protein) at 37 °C for 0 or 6 minutes. […] After 10-minute incubation, an aliquot (50 μL) of the […] (total volume of 200 μL) containing potassium phosphate buffer and carbazeran (15 μM), which yielded a 4-fold dilution of the secondary incubation mixture. The residual AOX1 enzyme activity was determined as described above.

[5] = molecular target: T2, human liver cytosolic AOX1; assay: Enzyme inactivation of human liver cytosolic AOX1-mediated carbazeran 4-oxidation
Experimental: as §1, §2
Preliminary experiments were performed to optimize the incubation time and concentration of an inactivator to ensure a log-linear decrease in enzyme activity over time and that the kobs versus inactivator concentration plot reaches a plateau for the determination of the kinact value. The observed first-order rate constant for inactivation (kobs), maximal inactivation rate constant (kinact), half-maximal inactivation concentration (KI), and the time required for half of the enzyme molecules to be inactivated (t1/2) were calculated as described in our previous publication.[28]

[6] = erlotinib 100 mg/kg p.o. 2 h before
[7] = male, BALB/c, mouse, whole blood, po, 10 mg/kg, Control (vehicle pretreatment)
[8] = male, BALB/c, mouse, whole blood, po, 10 mg/kg, erlotinib 100 mg/kg p.o. 2 h before
[9] = human liver cytosol, carbazeran 4-oxidation

CCNC(=O)OC1CCN(c2n[nH]c(=O)c3cc(OC)c(OC)cc23)CC1 [4-Oxo-Carbazeran, 4-oxo-carbazeran]
Ratio of AUC0-∞ (metabolite) to AUC0-∞ (parent) ([1]; Control (vehicle pretreatment)): 0.31 ± 0.06 | Ratio of AUC0-∞ (metabolite) to AUC0-∞ (parent) ([1]; Control (vehicle pretreatment), listed as 4-oxo-carbazeran): 0.31 | AUC0-∞ ([1]; Control (vehicle pretreatment)): 0.78 ± 0.23 µM·h | Cmax ([1]; Control (vehicle pretreatment)): 920 ± 390 nM | Tmax ([1]; Control (vehicle pretreatment)): 19.2 ± 7.2 min | AUC0-∞ [1, 6]: 0.027 ± 0.009∗∗∗∗ μM.h | Cmax [1, 6]: 8 ± 3 nM | Tmax [1, 6]: 27.6 ± 16.2 min | MRT0-∞ ([1]; Control (vehicle pretreatment)): 0.98 ± 0.19 h | MRT0-∞ [1, 6]: 8.98 ± 8.73∗ h | Ratio of AUC0-∞ (metabolite) to AUC0-∞ (parent) ([1]; erlotinib 100 mg/kg p.o. 2 h before carbazeran): 0.007 ± 0.003∗∗∗∗

CCNC(=O)OC1CCN(c2nncc3cc(OC)c(OC)cc23)CC1 [Carbazeran, carbazeran]
AUC(0-inf) [1, 7]: 2.52 ± 0.46 µM·h | Cmax [1, 7]: 3470 ± 1390 nM | AUC(0-inf) [1, 8]: 4.6 ± 2.02 µM·h | Cmax [1, 8]: 3530 ± 2180 nM | CL/F [1, 7]: 188 mL/min/kg | MRT inf [1, 7]: 79.2 ± 26.4 min | CL/F [1, 8]: 114 mL/min/kg | MRT inf [1, 8]: 139 ± 45.6 min | Tmax ([1]; male, BALB/c, mouse, whole blood, po, Control (vehicle pretreatment), read-out: Tmax): 17.4 ± 5.4 min

Oc1cc2ncnc(Nc3ccc(F)c(Cl)c3)c2cc1OCCCN1CCOCC1 [O-desmethylgefitinib]
decrease in carbazeran 4-oxidation (human recombinant AOX1): did not decrease

COc1cc2ncnc(Nc3ccc(F)c(Cl)c3)c2cc1O [O-desmorpholinopropylgefitinib]
decrease in carbazeran 4-oxidation (human recombinant AOX1): did not decrease

Nc1nc(OCc2ccccc2)c2nc[nH]c2n1 [O^6-benzylguanine]
effect of O^6-benzylguanine alone on carbazeran 4-oxidation [2]: did not affect the activity

CCc1cccc(Nc2ncnc3cc(OCCOC)c(OCCOC)cc23)c1 [Tetrahydroerlotinib, tetrahydroerlotinib]
Turnover Number ([3]; human liver cytosol): No inactivation | Partition Ratio ([3]; turnover number minus 1): No inactivation | effect of coincubation or postincubation with potassium ferricyanide on AOX1 inactivation [4]: not changed | KI ([5]; half-maximal inactivation concentration, human liver cytosol, carbazeran 4-oxidation): No inactivation | kinact ([5]; human liver cytosol 100 μg, carbazeran 15 μM, 37 °C): No inactivation | decrease in carbazeran 4-oxidation ([5]; human liver cytosol, 10 μM (raloxifene 0.02 μM), 30-minute preincubation): did not decrease | decrease in carbazeran 4-oxidation ([5]; human liver cytosol, 50 μM, 120 minutes preincubation): did not decrease | Inactivation t1/2 [5, 9]: No inactivation | kinact/KI [5, 9]: No inactivation | KI,u ([5]; unbound, KI,u = fu × KI, fu at 10 μM in human liver cytosol): No inactivation
